What was measured:
egg white albumin = biological target: T1, egg white albumin (Gallus gallus, UniProt P01012); assay: Affinity test by circular dichroism (CD) titration with albumin; assay type: binding; conditions: dye preparation in Ficoll 4% in a phosphate buffer (sterilised)
T1 construct: from tissue; host or cells: egg white
T1 sequence (P01012 1-386): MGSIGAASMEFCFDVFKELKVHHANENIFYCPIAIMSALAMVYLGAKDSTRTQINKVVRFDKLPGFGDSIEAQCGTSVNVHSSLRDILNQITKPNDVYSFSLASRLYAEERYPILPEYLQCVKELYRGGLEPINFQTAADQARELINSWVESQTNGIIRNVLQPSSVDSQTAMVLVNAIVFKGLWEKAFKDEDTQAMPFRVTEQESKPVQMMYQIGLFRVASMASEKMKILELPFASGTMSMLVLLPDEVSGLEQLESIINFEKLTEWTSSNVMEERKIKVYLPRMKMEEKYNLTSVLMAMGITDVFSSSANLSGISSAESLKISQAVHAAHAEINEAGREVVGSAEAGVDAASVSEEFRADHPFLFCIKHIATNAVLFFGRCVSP
Experimental: In fact, even in this sector, one of the most used dyes today is BBG. However, the Applicant has realised that although it can dye proteins, BBG actually has a relatively low affinity with the self-same proteins. […] It should be noticed that, to carry out the tests, the commercial BBG with a purity of 80% was preliminarily purified and the CD spectra were measured in the 800-400 nm region in the presence of increasing quantities of albumin. Finally, in the known way, the value of the association constant was determined using a non-linear regression of the intensity of the dichroic signal expressed in ΔA (AL-AR, where AL and AR respectively indicate the absorbency of the preparation as regards the two circularly polarized light waves used for the circular dichroism study, the left wave and the right wave) depending on the concentration of the egg white albumin, used as a reference. However, on this point what is indicated in the subsequent Affinity Tests section should also be considered. […]
Affinity was determined by means of CD (circular dichroism) spectroscopy. The CD spectra were measured in the 800-400 nm region in the presence of increasing quantities of egg white albumin which, as is known, for analyses of this type is commonly considered to be representative of proteins in general. […]

[1] = equal to 0.03% w/v; DIN EN ISO 10993; cited from earlier work

CCOc1ccc(Nc2ccc(/C(=C3C=C/C(=[N+](/CC)Cc4cccc(S(=O)(=O)[O-])c4)C=C/3C)c3ccc(N(CC)Cc4cccc(S(=O)(=O)O)c4)cc3C)cc2)cc1 [BBG-250, Brilliant Blue G 250]
association constant Ka (egg white albumin): approximately 60,000 M^−1 | concentration at which considered not to be cytotoxic [1]: ≤ 0.3 g/I

Source: US20180104361A1, “DYE MOLECULE AND DYE PREPARATIONS, IN PARTICULAR FOR USE IN SURGICAL METHODS OF OPHTHALMIC SURGERY AND FOR DYEING PROTEINS” (AL.CHI.MI.A. S.R.L., priority 2015, published 2018)
